These results are taken from ChEMBL document CHEMBL1144567, “Linker-modified triamine-linked acridine dimers: synthesis and cytotoxicity properties in vitro and in vivo” (Bioorg Med Chem, 2007).

The test system of one data set is MOLT-4. Nature of the data set: Cytotoxicity against MOLT4 cells after 72 hrs by MTT assay. The following applies: Homo sapiens, MOLT-4, 72 h. For orientation: Tetrazolium assays rely on reduction of a dye to a coloured formazan, in cell work by metabolically active cells.
In data set [1] the test system is COLO 205. Kind of data set: Cytotoxicity against human COLO205 cells after 72 hrs by MTT assay. It counts as cell-based. Conditions: COLO 205, 72 h.
Data set [2] in a line: Cytotoxicity against human HA22T cells after 72 hrs by MTT assay. The class given is cell-based.
A short description of data set [3]: Cytotoxicity against SKBR3 cells after 72 hrs by MTT assay. The class given is cell-based. Conditions: Homo sapiens, SK-BR-3, 72 h.
The test system of another data set is Nucleic Acid. Kind of data set: Binding affinity to Escherichia coli JM83 pUC19 DNA assessed as DNA intercalation assay. It counts as nucleic-acid assay.
Data set [4] in a line: Toxicity in ICR mouse. The class given is organism-based. The following applies: in vivo.
The test system of data set [5] is COLO 205. Kind of data set: Antitumor activity against human COLO205 cells implanted in SCID mouse at 10 mg/kg injected into tail vein. The class given is functional. The following applies: read-out: TGI.
Data set [6] relates to COLO 205. Kind of data set: Antitumor activity against human COLO205 cells implanted in SCID mouse at 22.5 mg/kg injected into tail vein. It counts as functional. Conditions: read-out: TGI.

Molecules are shown by their SMILES. Where only a bound is given, the exact number is not on record here.

For `COc1ccc2nc3cc(Cl)ccc3c(NCCCN(CCCNc3c4ccc(Cl)cc4nc4ccc(OC)cc34)CC3CC3)c2c1`, the IC50 (commonly the midpoint of a concentration-inhibition curve) is < 10 nM with MOLT-4, 1270 nM in the data set on COLO 205 [1], 480 nM in data set [2] and 820 nM in data set [3]. The SC50 in the data set with Nucleic Acid is 2 µM.

For `COc1ccc2nc3cc(Cl)ccc3c(NCCCN(CCCNc3c4ccc(Cl)cc4nc4ccc(OC)cc34)Cc3ccccc3OC)c2c1`, the IC50 is < 10 nM with MOLT-4, 3610 nM in the data set with COLO 205 [1], 930 nM in data set [2] and 710 nM in data set [3]. Further, the SC50 in the data set on Nucleic Acid stood at 2 µM.

On to `COc1ccc2nc3cc(Cl)ccc3c(NCCCN(CCCNc3c4ccc(Cl)cc4nc4ccc(OC)cc34)Cc3ccoc3)c2c1`, for which the MTD in data set [4] came to 10 mg/kg. The IC50 with MOLT-4 was 10 nM; in the data set with COLO 205 [1], 460 nM; in data set [2] it was 360 nM; in data set [3] it was 690 nM. Further, the inhibition in vivo at 10 mg/kg in the data set with COLO 205 [5] was found to be 24%. Besides, the SC50 in the data set with Nucleic Acid came to 2 µM.

For the molecule `COc1ccc2nc3cc(Cl)ccc3c(NCCCN(CCCNc3c4ccc(Cl)cc4nc4ccc(OC)cc34)Cc3sccc3C)c2c1`, the 50% inhibitory concentration (IC50) was < 10 nM in the data set on MOLT-4, 10 nM with COLO 205 [1], 60 nM in data set [2] and 70 nM in data set [3]. Further, the SC50 in the data set on Nucleic Acid is 2 µM.

For `CCN(CCCNc1c2ccc(Cl)cc2nc2ccc(OC)cc12)CCCNc1c2ccc(Cl)cc2nc2ccc(OC)cc12`, the MTD in data set [4] is 30 mg/kg. In addition, the concentration for half-maximal inhibition (IC50) is < 20 nM with MOLT-4, 90 nM with COLO 205 [1], 5330 nM in data set [2] and 7310 nM in data set [3].

With `COc1ccc2nc3cc(Cl)ccc3c(NCCCN(CCCNc3c4ccc(Cl)cc4nc4ccc(OC)cc34)Cc3ccc(Br)o3)c2c1`, the IC50 is < 10 nM in the data set on MOLT-4, 410 nM in the data set with COLO 205 [1], 1110 nM in data set [2] and 4240 nM in data set [3]. Besides, the SC50 in the data set with Nucleic Acid was > 20 µM.

Regarding `COc1ccc2nc3cc(Cl)ccc3c(NCCCCNCCCNc3c4ccc(Cl)cc4nc4ccc(OC)cc34)c2c1`, the concentration for half-maximal inhibition (IC50) was < 20 nM with MOLT-4, 130 nM in the data set on COLO 205 [1], 330 nM in data set [2] and 50 nM in data set [3]. For the same molecule, the SC50 in the data set on Nucleic Acid was found to be 4 µM.

In data set [4], `COc1ccc2nc3cc(Cl)ccc3c(NCCCNCCCNc3c4ccc(Cl)cc4nc4ccc(OC)cc34)c2c1` returned an MTD of 10 mg/kg. Besides, the 50% inhibitory concentration (IC50) is < 20 nM in the data set with MOLT-4, 410 nM in the data set on COLO 205 [1], 330 nM in data set [2] and 770 nM in data set [3]. Further, the inhibition in vivo at 10 mg/kg in the data set with COLO 205 [5] was 80%. Moreover, the SC50 in the data set on Nucleic Acid was determined as 4 µM.

On to `COc1ccc2nc3cc(Cl)ccc3c(NCCCN(CCCNc3c4ccc(Cl)cc4nc4ccc(OC)cc34)Cc3ccco3)c2c1`, for which the IC50 in the data set with MOLT-4 was < 10 nM; with COLO 205 [1] it was 240 nM; in data set [2], 610 nM; in data set [3], 840 nM. The SC50 with Nucleic Acid turned out to be 2 µM.

With `COc1ccc2nc3cc(Cl)ccc3c(NCCCN(CCCNc3c4ccc(Cl)cc4nc4ccc(OC)cc34)Cc3cccc(OC)c3OC)c2c1`, the IC50 was 10 nM in the data set on MOLT-4, 640 nM in the data set with COLO 205 [1], 620 nM in data set [2] and 790 nM in data set [3]. Also, in the data set on Nucleic Acid, the SC50 came out at 2 µM.

`COc1ccc2nc3cc(Cl)ccc3c(NCCCN(C)CCCNc3c4ccc(Cl)cc4nc4ccc(OC)cc34)c2c1`: the MTD in data set [4] was found to be 22.5 mg/kg. For the same molecule, the IC50 is < 20 nM in the data set with MOLT-4, 160 nM with COLO 205 [1], 620 nM in data set [2] and 700 nM in data set [3]. For the same molecule, the inhibition in vivo at 22.5 mg/kg with COLO 205 [6] was 2%.

`CCCN(CCCNc1c2ccc(Cl)cc2nc2ccc(OC)cc12)CCCNc1c2ccc(Cl)cc2nc2ccc(OC)cc12`: the IC50 was < 20 nM in the data set on MOLT-4, 1460 nM with COLO 205 [1], 5980 nM in data set [2] and 5780 nM in data set [3]. Moreover, in the data set with Nucleic Acid, the SC50 worked out at 2 µM.

As for `COc1ccc2nc3cc(Cl)ccc3c(NCCCN(CCCNc3c4ccc(Cl)cc4nc4ccc(OC)cc34)Cc3ccc(Br)s3)c2c1`, the 50% inhibitory concentration (IC50) in the data set on MOLT-4 was < 10 nM; with COLO 205 [1], 850 nM; in data set [2], 1150 nM; in data set [3], 5800 nM. Further, the SC50 in the data set on Nucleic Acid is > 20 µM.

In turn, `COc1ccc2nc3cc(Cl)ccc3c(NCCCN(CCCNc3c4ccc(Cl)cc4nc4ccc(OC)cc34)Cc3ccccn3)c2c1` had an MTD in data set [4] of 10 mg/kg. For the same molecule, the IC50 with MOLT-4 is < 10 nM; with COLO 205 [1] it was 10 nM; in data set [2], 3970 nM; in data set [3], 720 nM. The inhibition in vivo at 10 mg/kg in the data set with COLO 205 [5] was found to be 0%. In addition, the SC50 in the data set with Nucleic Acid was 2 µM.

Take `COc1ccc2nc3cc(Cl)ccc3c(NCCCN(CCCNc3c4ccc(Cl)cc4nc4ccc(OC)cc34)CC3COC(C)(C)O3)c2c1` (stereo not drawn): the IC50 in the data set with MOLT-4 was < 10 nM; in the data set on COLO 205 [1] it was 5600 nM; in data set [2], 3430 nM; in data set [3] it was 6610 nM.

As to `COc1ccc2nc3cc(Cl)ccc3c(NCCCN(CCCNc3c4ccc(Cl)cc4nc4ccc(OC)cc34)Cc3ccccc3)c2c1`, the IC50 in the data set on MOLT-4 was found to be 700 nM; with COLO 205 [1], 750 nM; in data set [2], 700 nM; in data set [3], 700 nM. For the same molecule, the SC50 with Nucleic Acid came out at 2 µM.

Turning to `COc1ccc2nc3cc(Cl)ccc3c(NCCCCN(CCCNc3c4ccc(Cl)cc4nc4ccc(OC)cc34)CC3CC3)c2c1`, the IC50 is < 10 nM in the data set with MOLT-4, 10 nM with COLO 205 [1], 510 nM in data set [2] and 720 nM in data set [3]. The SC50 in the data set with Nucleic Acid amounted to 2 µM.

As to `COc1ccc(CN(CCCCNc2c3ccc(Cl)cc3nc3ccc(OC)cc23)CCCNc2c3ccc(Cl)cc3nc3ccc(OC)cc23)cc1`, the half-maximal inhibitory concentration (IC50) in the data set with MOLT-4 was 710 nM; with COLO 205 [1], 390 nM; in data set [2], 5450 nM; in data set [3], 860 nM.

With `COc1cccc2c1C(=O)c1c(O)c3c(c(O)c1C2=O)C[C@@](O)(C(=O)CO)C[C@@H]3O[C@H]1C[C@H](N)[C@H](O)[C@H](C)O1` [DOXORUBICIN], the IC50 with COLO 205 [1] is 260 nM; in data set [2], 310 nM; in data set [3], 290 nM. Besides, in the data set on Nucleic Acid, the SC50 is 10 µM.

For `COc1ccc2nc3cc(Cl)ccc3c(NCCCN(CCCNc3c4ccc(Cl)cc4nc4ccc(OC)cc34)CCc3ccccc3)c2c1`, the half-inhibitory concentration (IC50) was < 10 nM in the data set on MOLT-4, 700 nM in the data set on COLO 205 [1], 650 nM in data set [2] and 680 nM in data set [3].

With `COc1cccc(CN(CCCNc2c3ccc(Cl)cc3nc3ccc(OC)cc23)CCCNc2c3ccc(Cl)cc3nc3ccc(OC)cc23)c1`, the IC50 in the data set with MOLT-4 is < 10 nM; in the data set with COLO 205 [1], 350 nM; in data set [2], 420 nM; in data set [3] it was 680 nM. For the same molecule, the SC50 in the data set with Nucleic Acid was 2 µM.
